{"source": "patent US20080107719A1", "about": "“Transdermal drug delivery system” (priority 2006, published 2008)", "key": {"Pka determination": {"experiment": "Pka determination", "assay_type": "physicochemical"}, "Solubility in PG": {"experiment": "Solubility in PG", "assay_type": "physicochemical", "details": "organic solvent or mixture"}, "[1]": {"experiment": "Half life (t1/2) in acidic and basic PH conditions", "assay_type": "physicochemical", "details": "buffer"}, "[2]": {"experiment": "Solubility in various PH medium", "assay_type": "physicochemical", "details": "media of various pH, aqueous buffer"}, "[3]": {"experiment": "Hygroscopicity (moisture sorption)", "assay_type": "physicochemical"}, "[4]": {"experiment": "Stability in aqueous (PH1 and 14) tested by 3% hydrogen peroxide", "assay_type": "physicochemical"}, "rat [5]": {"test_system": "rat", "details": "in vivo; cited from earlier work"}, "rat [6]": {"test_system": "rat", "details": "cited from earlier work"}}, "note": "Like-named read-outs stand apart in the source and are kept apart here.", "data": [{"compound": "Cc1cccc(C(C)c2c[nH]c(=S)[nH]2)c1C", "note": "(stereo not drawn) [AGN 203818]", "values": [{"measurement": "pKa", "setting": "Pka determination", "result": 11.3}, {"measurement": "solubility", "setting": "Solubility in PG", "result": "> 5100", "unit": "µg/mL"}, {"measurement": "half-life", "setting": "[1]; pH 1, PH1, read-out: t1/2 (days) PH1 (converted)", "result": 51, "unit": "days"}, {"measurement": "half-life", "setting": "[1]; pH 11, PH11, read-out: t1/2 (days) PH11 (converted)", "result": 57, "unit": "days"}, {"measurement": "solubility", "setting": "[2]; in PH1-11, read-out: Solubility (μg/ml) in various PH medium", "result": "19.3 to 27.5", "unit": "µg/mL"}, {"measurement": "logP", "setting": "Log P (Octanol/water); octanol/water", "result": "2.9 to 3.12"}, {"measurement": "solubility", "setting": "Solubility in water; water", "result": 24.5, "unit": "µg/mL"}]}, {"compound": "CC12CC3CC(C)(C1)CC(N)(C3)C2.Cl", "note": "[Memantine HCl]", "values": [{"measurement": "pKa", "setting": "Pka determination", "result": 10.5}, {"measurement": "Hygroscopicity", "setting": "[3]", "result": "Slightly hygroscopic"}, {"measurement": "moisture sorption", "setting": "[3]; at 5-95% RH", "result": "(<1.1% moisture"}, {"measurement": "solubility", "setting": "[2]; in PH 2-8, read-out: Solubility in various PH medium", "result": "> 1200", "unit": "µg/mL"}, {"measurement": "Stability in aqueous (PH1 and 14) tested by 3% hydrogen peroxide", "setting": "[4]; PH1 and 14, 3% hydrogen peroxide", "result": "Stable"}, {"measurement": "stability in both acidic and basic pH conditions", "setting": "[4]; acidic and basic pH", "result": "high stability"}, {"measurement": "Log P (Octanol/water)", "setting": "Log P (Octanol/water)", "result": 3.28}, {"measurement": "PH of 1% aqueous solution", "setting": "Solubility in water; 1% aqueous solution", "result": "(PH 5.5-6)"}, {"measurement": "solubility at 24 hr", "setting": "Solubility in water; water", "result": 45000, "unit": "µg/mL"}]}, {"compound": "CN1CCCC1=O", "note": "[N-methylpyrrolidone]", "values": [{"measurement": "LD50 (skin)", "setting": "rat [5]", "result": 7, "unit": "g/KG bodyweight"}]}, {"compound": "Polysorbate80", "values": [{"measurement": "LD50 (Rat-Oral)", "setting": "rat [6]", "result": 34.5, "unit": "ml/kg bodyweight"}]}]}
